From patent publication US20240174679A1, “HETEROAROYL AMIDES AS LRRK2 INHIBITORS, PHARMACEUTICAL COMPOSITIONS, AND USES THEREOF” (MERCK SHARP & DOHME LLC, priority 2021, published 2024) come the findings set out here.

GST tagged truncated human mutant G2019S LRRK2, sequence (Q5S007 970-2527 G2019S): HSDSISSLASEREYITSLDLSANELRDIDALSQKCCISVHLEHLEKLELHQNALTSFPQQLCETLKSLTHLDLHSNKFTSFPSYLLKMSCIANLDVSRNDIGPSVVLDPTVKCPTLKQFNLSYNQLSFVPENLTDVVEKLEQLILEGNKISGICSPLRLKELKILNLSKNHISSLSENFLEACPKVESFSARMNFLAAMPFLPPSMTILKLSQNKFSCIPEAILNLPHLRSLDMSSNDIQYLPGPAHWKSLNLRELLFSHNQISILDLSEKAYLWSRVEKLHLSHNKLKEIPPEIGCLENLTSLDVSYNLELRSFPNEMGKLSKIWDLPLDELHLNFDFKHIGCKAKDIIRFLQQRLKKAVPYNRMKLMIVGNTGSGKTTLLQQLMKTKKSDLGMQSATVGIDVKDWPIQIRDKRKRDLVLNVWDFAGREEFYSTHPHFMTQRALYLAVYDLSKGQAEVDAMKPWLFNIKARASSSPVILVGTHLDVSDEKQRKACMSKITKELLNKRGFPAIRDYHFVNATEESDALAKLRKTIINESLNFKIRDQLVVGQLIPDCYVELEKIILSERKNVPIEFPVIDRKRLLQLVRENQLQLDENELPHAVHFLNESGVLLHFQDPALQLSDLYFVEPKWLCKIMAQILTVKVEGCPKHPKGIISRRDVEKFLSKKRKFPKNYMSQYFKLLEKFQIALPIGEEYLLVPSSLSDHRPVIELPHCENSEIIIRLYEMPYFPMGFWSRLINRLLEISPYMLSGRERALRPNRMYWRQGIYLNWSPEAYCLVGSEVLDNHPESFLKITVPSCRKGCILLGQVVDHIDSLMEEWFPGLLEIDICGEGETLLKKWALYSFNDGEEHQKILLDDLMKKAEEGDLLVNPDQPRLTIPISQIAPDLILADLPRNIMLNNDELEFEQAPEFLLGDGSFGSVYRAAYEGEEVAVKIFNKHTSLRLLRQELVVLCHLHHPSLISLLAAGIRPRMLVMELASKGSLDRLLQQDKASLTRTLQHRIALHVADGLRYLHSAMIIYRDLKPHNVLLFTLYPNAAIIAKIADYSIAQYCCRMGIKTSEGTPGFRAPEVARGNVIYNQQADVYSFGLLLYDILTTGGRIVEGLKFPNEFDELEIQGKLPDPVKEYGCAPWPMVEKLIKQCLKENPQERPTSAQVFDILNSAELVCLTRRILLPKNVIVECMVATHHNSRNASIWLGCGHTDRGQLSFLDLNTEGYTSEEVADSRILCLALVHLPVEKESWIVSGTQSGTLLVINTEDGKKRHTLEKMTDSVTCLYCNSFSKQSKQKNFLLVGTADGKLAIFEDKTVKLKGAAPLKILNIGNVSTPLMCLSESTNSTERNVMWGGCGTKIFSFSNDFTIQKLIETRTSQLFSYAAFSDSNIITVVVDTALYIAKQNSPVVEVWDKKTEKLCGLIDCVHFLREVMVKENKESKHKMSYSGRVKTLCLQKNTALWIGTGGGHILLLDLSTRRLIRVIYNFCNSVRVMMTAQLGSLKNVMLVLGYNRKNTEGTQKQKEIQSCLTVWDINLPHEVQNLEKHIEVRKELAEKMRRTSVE

The assay addresses GST tagged truncated human mutant G2019S LRRK2 (Homo sapiens (Human), UniProt Q5S007, G2019S). In words: LRRK2 Km ATP LanthaScreen Assay. Type of assay: biochemical. To be noted: 134 μM ATP (Km ATP), LRRKtide substrate, negative log of mean IC50 (molar). In short, it runs like this: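 Truncated GST-tagged G2019S LRRK2 (1.25 nM enzyme solution) was preincubated with compound for 15 min at rt, then reacted for 90 min with fluorescein-LRRKtide and 134 μM ATP (Km) in Tris pH 8.5/MgCl2 buffer. After an EDTA stop, TR-FRET used a Tb anti-pERM antibody (520/495 nm ratio). IC50 came from a 4-parameter fit and is reported as pIC50, mean of several runs.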
On the technique in general: Time-resolved FRET reads energy transfer from a long-lived donor to a nearby acceptor.
Take `CCn1cc(-c2nc(C(=O)Nc3cn(CC(F)(F)F)nc3OC)cs2)cn1` [Example 12-4, 2-(1-ethyl-1H-pyrazol-4-yl)-N-[3-methoxy-1-(2,2,2-trifluoroethyl)-1H-pyrazol-4-yl]-1,3-thiazole-4-carboxamide]: the “LRRK2 pIC50” value was 6.57.
For `Cc1nn(C2CCC2)cc1NC(=O)c1csc(-c2cnn(C)c2)n1` [Example 12-5, N-(1-cyclobutyl-3-methyl-1H-pyrazol-4-yl)-2-(1-methyl-1H-pyrazol-4-yl)-1,3-thiazole-4-carboxamide] the value was 7.30.
As for `COc1nn(CC(F)(F)F)cc1NC(=O)c1csc(-c2cnn(C)c2)n1` [Example 12-6, N-[3-methoxy-1-(2,2,2-trifluoroethyl)-1H-pyrazol-4-yl]-2-(1-methyl-1H-pyrazol-4-yl)-1,3-thiazole-4-carboxamide], the figure is 7.06; as for `COc1nn(CC(F)(F)F)cc1NC(=O)c1csc(-c2cnn(S(C)(=O)=O)c2)n1` [Example 13-1, N-(3-Methoxy-1-(2,2,2-trifluoroethyl)-1H-pyrazol-4-yl)-2-(1-(methylsulfonyl)-1H-pyrazol-4-yl)thiazole-4-carboxamide], 5.97.
